Eleven molecules from ChEMBL document CHEMBL1201862, “PubChem BioAssay data set” (2004) can be followed below.

Some test systems named below: PC-3; OVCAR-8; SK-MEL-5; RXF 393; TK-10; SR; UACC-62; SN12C; T47D; BT-549; HL-60; HOP-62; A549; SK-MEL-28; SNB-19; MDA-MB-231; ACHN; EKVX; SF-268; HT-29.
What all share (assay): DTP human tumour cell line panel, 48 h

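In this assay, cells in 96-well plates receive the compound at five concentrations for 48 hours. Endpoints are linearly interpolated between the surrounding concentrations. Abbreviation: GI50, concentration required for 50% inhibition of growth.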 Calls of active or inactive are those of the source. No stated cut-off is given here; in the data, active = GI50 up to about 1.1 µM and inactive = higher. Bridge positions count the residues as written; N and C are the ends. Square brackets hold non-standard residues; d marks the D form. Peptide text beside a SMILES is read from it. * marks the point of attachment. Cya = N[CH](CS(=O)(=O)O)C(=O)O; X49 = CC(C)CCCCCCCC(O)CC(=O)*; GABA = NCCCC(=O)O

`Cc1nc(O)nc(NNCc2ccc(Cl)cc2)c1C(=O)Nc1ccc(Cl)cc1`: the GI50 in the test with PC-3, in the test on OVCAR-8, with SK-MEL-5, in the test on RXF 393, in the test with TK-10 and in the test with SR was > 100 µM (inactive) in each case. The GI50 – broadly, the concentration giving 50% growth inhibition – with UACC-62 was 3.69 µM (inactive); with SN12C, > 100 µM (inactive); with T47D, > 100 µM (inactive); with BT-549, > 100 µM (inactive); in the test with HL-60 it was > 100 µM (inactive); in the test with HOP-62, > 100 µM (inactive). The GI50 in the test with A549, in the test with SK-MEL-28, with SNB-19 and in the test on MDA-MB-231 was > 100 µM (inactive) in each case.
Consider `COc1ccc(N2CCN(c3ccc4c(c3)NCC(=O)N4)CC2)cc1`, for which the GI50 in the test with PC-3 was 36.2 µM (inactive); in the test on ACHN, 32.3 µM (inactive); in the test with OVCAR-8, 26.7 µM (inactive); in the test with SK-MEL-5 it was 42.8 µM (inactive); in the test on TK-10, 41.8 µM (inactive); in the test on SR it was 9.75 µM (inactive). The GI50 in the test on UACC-62 was 25.3 µM (inactive); in the test on EKVX it was 39.2 µM (inactive); in the test on SN12C, 70.6 µM (inactive); in the test with T47D, 15.4 µM (inactive); in the test on BT-549, 34 µM (inactive); in the test on HL-60 it was 17.1 µM (inactive). Further, the GI50 with HOP-62 was > 100 µM (inactive); in the test with SF-268 it was 74.1 µM (inactive); in the test with A549, 66.2 µM (inactive); in the test on SK-MEL-28 it was > 100 µM (inactive); with HT-29, > 100 µM (inactive); in the test on SNB-19, 59.4 µM (inactive). Further, the GI50 with MDA-MB-231 was 34.4 µM (inactive).
For `CCCCC1C(=O)N(c2ccc(S(=O)(=O)Nc3ccccn3)cc2)N(c2ccc(O)c(C(=O)O)c2)C1=O` (stereo not drawn), the GI50 in the test with PC-3, with ACHN, in the test with OVCAR-8, in the test on SK-MEL-5, with RXF 393 and in the test with SR was > 100 µM (inactive) each time. Further, the GI50 in the test on UACC-62, in the test on EKVX, in the test on SN12C, in the test on T47D, in the test on BT-549 and in the test with HL-60 was > 100 µM (inactive) in each case. Moreover, the GI50 in the test on SF-268, with A549, in the test with SK-MEL-28, in the test with HT-29, in the test with SNB-19 and with MDA-MB-231 was > 100 µM (inactive) throughout.
For `Cc1c(C(=O)O)n2c(C)nnc2c2ccccc12`, the GI50 with PC-3, in the test on ACHN, in the test on OVCAR-8, in the test with SK-MEL-5, in the test with RXF 393 and in the test with TK-10 was > 100 µM (inactive) throughout. The GI50 in the test on SR, in the test with UACC-62, in the test with EKVX, in the test with SN12C, in the test with T47D and in the test with BT-549 was > 100 µM (inactive) each time. For the same molecule, the GI50 in the test with HOP-62, in the test on SF-268, in the test on A549, in the test with SK-MEL-28, with HT-29 and with MDA-MB-231 was > 100 µM (inactive) in each case.
With `COC(=O)C(Cc1c[nH]c2ccccc12)NP(=O)(O)OCC1OC(n2cc(I)c(=O)[nH]c2=O)CC1O` (stereo not drawn), the GI50 in the test with PC-3, in the test on ACHN, in the test with OVCAR-8, in the test on SK-MEL-5, in the test with TK-10 and with SR was > 100 µM (inactive) throughout. In addition, the GI50 with UACC-62, in the test with EKVX, in the test on SN12C, in the test with T47D, in the test with BT-549 and with HL-60 was > 100 µM (inactive) in each case. Besides, the GI50 with HOP-62, in the test with SF-268, in the test on A549, in the test with SK-MEL-28, in the test on HT-29 and in the test on SNB-19 was > 100 µM (inactive) in each case. In addition, the GI50 in the test with MDA-MB-231 was > 100 µM (inactive).
On to `CCOC(=O)c1sc2nc(SC)nc(Nc3ccc4c(c3)OCO4)c2c1N`, for which the GI50 in the test on PC-3 was 37.8 µM (inactive); in the test with ACHN it was 19.9 µM (inactive); with SK-MEL-5, 44.1 µM (inactive); with RXF 393 it was 10.9 µM (inactive); with TK-10, 30.9 µM (inactive); in the test on SR, > 100 µM (inactive). The GI50 in the test with UACC-62 is 25.1 µM (inactive); in the test with EKVX it was 31.9 µM (inactive); with SN12C, 59 µM (inactive); in the test on T47D it was 39.5 µM (inactive); in the test with BT-549 it was 33.7 µM (inactive); in the test with HL-60, > 100 µM (inactive). For the same molecule, the GI50 was 28.8 µM (inactive) in the test with HOP-62; 68.9 µM (inactive) in the test on A549; 1.91 µM (inactive) in the test on SK-MEL-28; 54.7 µM (inactive) with SNB-19; 26 µM (inactive) in the test with MDA-MB-231.
As to `Clc1cccc(-c2nc3cccc4c3n2Cc2ncccc2-4)c1`, the GI50 with PC-3 was 73.6 µM (inactive); in the test on ACHN, 8.2 µM (inactive); with OVCAR-8, 92.3 µM (inactive); in the test on RXF 393, 21.9 µM (inactive); in the test with TK-10, 42.2 µM (inactive); in the test with SR, 24 µM (inactive). Also, the GI50 was 56.6 µM (inactive) in the test on UACC-62; > 100 µM (inactive) in the test with EKVX; > 100 µM (inactive) with SN12C; > 100 µM (inactive) in the test with T47D; > 100 µM (inactive) with BT-549; 36.1 µM (inactive) in the test on HOP-62. For the same molecule, the GI50 in the test with SF-268 was 32.8 µM (inactive); in the test with A549, 21.9 µM (inactive); in the test with SK-MEL-28 it was > 100 µM (inactive); in the test with HT-29, > 100 µM (inactive); with SNB-19, 23.9 µM (inactive); in the test with MDA-MB-231, 94.2 µM (inactive).
For the molecule `COc1cc(C2C3=C(COC3=O)OC(C)(C)Oc3cc4c(cc32)OCO4)cc(OC)c1O` (stereo not drawn), the GI50 in the test with PC-3 was 0.444 µM (active); with ACHN, 0.851 µM (active); in the test with OVCAR-8, 0.964 µM (active); in the test with SK-MEL-5 it was 0.246 µM (active); in the test on RXF 393, 0.122 µM (active); in the test with SR it was 1.01 µM (active). Besides, the GI50 is 3.27 µM (inactive) with UACC-62; 4.12 µM (inactive) in the test on EKVX; 2.79 µM (inactive) with SN12C; 0.498 µM (active) with T47D; 12.9 µM (inactive) with BT-549; 0.291 µM (active) with HL-60. Also, the GI50 in the test with HOP-62 was 0.791 µM (active); in the test with SF-268 it was 0.916 µM (active); with A549, 0.944 µM (active); in the test with SK-MEL-28, 0.973 µM (active); in the test with HT-29, 2.19 µM (inactive); in the test on SNB-19, 1.33 µM (inactive). Also, the GI50 in the test with MDA-MB-231 was 0.76 µM (active).
Take `ClCc1c(-c2ccccc2)nn(-c2ccccc2)c1CCl`: the GI50 with PC-3 was 9.71 µM (inactive); with OVCAR-8, 14.2 µM (inactive); in the test on SK-MEL-5 it was 12.4 µM (inactive); in the test with RXF 393 it was 12.4 µM (inactive); in the test on TK-10 it was 14.6 µM (inactive); with SR, 2.33 µM (inactive). Besides, the GI50 is 7.18 µM (inactive) with UACC-62; 19.4 µM (inactive) in the test with SN12C; 2 µM (inactive) in the test with T47D; > 10 µM (inactive) with BT-549; 3.14 µM (inactive) in the test on HL-60; 16.6 µM (inactive) in the test with SF-268. In addition, the GI50 in the test on A549 is 16.5 µM (inactive); in the test on SK-MEL-28, 15.6 µM (inactive); in the test with HT-29 it was 9.75 µM (inactive); with SNB-19, 18.6 µM (inactive); in the test with MDA-MB-231, > 10 µM (inactive).
Regarding `CCOC(=O)C1c2[nH]c3ccccc3c2CCN1C(=O)c1ccco1` (stereo not drawn), the GI50 in the test with PC-3, with ACHN, in the test with OVCAR-8, in the test on SK-MEL-5, in the test on TK-10 and with SR was > 10 µM (inactive) each time. Moreover, the GI50 with UACC-62, in the test with EKVX, in the test on SN12C, in the test with T47D, in the test on BT-549 and in the test with HL-60 was > 10 µM (inactive) each time. The GI50 in the test on HOP-62, with SF-268, with A549, in the test with SK-MEL-28, with HT-29 and with SNB-19 was > 10 µM (inactive) in each case. In addition, the GI50 in the test on MDA-MB-231 is > 10 µM (inactive).
On to `CC(C)CCCCCCCC(O)CC(=O)NC(CS(=O)(=O)O)C(=O)NC(CC(C)C)C(=O)NCCCC(=O)NC(Cc1c[nH]cn1)C(=O)NC(C)C(=O)NC1C(=O)NC(C(C)O)C(=O)NC(Cc2c[nH]cn2)C(=O)NC(C)C(=O)NC(C(C)O)C(=O)OC1C` (stereo not drawn) (X49-[Cya]L[GABA]HATTHAT; ester 6-C; configuration not given here), for which the GI50 in the test with PC-3 was > 25 µM (inactive); with ACHN it was > 25 µM (inactive); with OVCAR-8, > 25 µM (inactive); with SK-MEL-5 it was > 25 µM (inactive); in the test with TK-10, > 25 µM (inactive); in the test on SR, 17.5 µM (inactive). The GI50 with UACC-62, with EKVX, with SN12C, in the test on T47D, in the test on BT-549 and in the test on HL-60 was > 25 µM (inactive) throughout. The GI50 in the test with HOP-62, with A549, with SK-MEL-28, in the test on HT-29, in the test on SNB-19 and in the test with MDA-MB-231 was > 25 µM (inactive) in each case.
